The values that follow come from US8530667B2, “Herbicides” (Syngenta Limited, priority 2007, dated 2013).

Common to all, as to type: in vivo
For test [1], the system named is Echinochloa crus-galli (ECHCG). Description: Example B pre-emergence herbicidal activity, glasshouse pot test. The following applies: 312 h, Rate 250 g/ha, evaluated after 13 days, read-out: Pre-Emergence Activity ECHCG (100=total damage to plant; 0=no damage to plant). On the procedure: (§1) Seeds of a variety of test species were sown in standard soil in pots. After cultivation for one day (pre-emergence) or after 8 days cultivation (post-emergence) under controlled conditions in a glasshouse (at 24/16° C., day/night; 14 hours light; 65% humidity), the plants were sprayed with an aqueous spray solution derived from the formulation of the technical active ingredient in acetone/water (50:50) solution containing 0.5% Tween 20 (polyoxyethelyene sorbitan monolaurate, CAS RN 9005-64-5). The test plants were then grown in a glasshouse under controlled conditions in a glasshouse (at 24/16° C., day/night; 14 hours light; 65% humidity) and watered twice daily. After 13 days for pre and post-emergence, the test was evaluated (100=total damage to plant; 0=no damage to plant). Alopecurus myosuroides (ALOMY), Avena fatua (AVEFA), Setaria faberi (SETFA), Echinochloa crus-galli (ECHCG) and Amaranthus retoflexus (AMARE)

Test [2] relates to Alopecurus myosuroides (ALOMY). The description is as above. The following applies: 312 h, Rate 250 g/ha, evaluated after 13 days, read-out: Pre-Emergence Activity ALOMY (100=total damage to plant; 0=no damage to plant). On the procedure:
as §1

The subject of test [3] is Amaranthus retoflexus (AMARE). The test is described as above. The following applies: Amaranthus retroflexus, 312 h, Rate 250 g/ha, evaluated after 13 days, read-out: Pre-Emergence Activity AMARE (100=total damage to plant; 0=no damage to plant). The protocol:
as §1

Test [4] concerns Avena fatua (AVEFA). Described as above. The following applies: 312 h, Rate 250 g/ha, evaluated after 13 days, read-out: Pre-Emergence Activity AVEFA (100=total damage to plant; 0=no damage to plant). On the procedure:
as §1

Test [5] deals with Setaria faberi (SETFA). The description is as above. The following applies: 312 h, Rate 250 g/ha, evaluated after 13 days, read-out: Pre-Emergence Activity SETFA (100=total damage to plant; 0=no damage to plant). The protocol:
as §1

Test [6] deals with Echinochloa crus-galli (ECHCG). Description: Example B post-emergence herbicidal activity, glasshouse pot test. The following applies: 312 h, rate 250 g/ha, evaluated after 13 days, read-out: Post-emergence activity ECHCG (100=total damage to plant; 0=no damage to plant). On the procedure:
as §1

Test [7] has as its system Alopecurus myosuroides (ALOMY). The test is described as above. The following applies: 312 h, rate 250 g/ha, evaluated after 13 days, read-out: Post-emergence activity ALOMY (100=total damage to plant; 0=no damage to plant). On the procedure:
as §1

The test system of test [8] is Amaranthus retoflexus (AMARE). The test is described as above. The following applies: Amaranthus retroflexus, 312 h, rate 250 g/ha, evaluated after 13 days, read-out: Post-emergence activity AMARE (100=total damage to plant; 0=no damage to plant). On the procedure:
as §1

The subject of test [9] is Avena fatua (AVEFA). The test is described as above. The following applies: 312 h, rate 250 g/ha, evaluated after 13 days, read-out: Post-emergence activity AVEFA (100=total damage to plant; 0=no damage to plant). On the procedure:
as §1

Test [10] has as its system Setaria faberi (SETFA). Described as above. The following applies: 312 h, rate 250 g/ha, evaluated after 13 days, read-out: Post-emergence activity SETFA (100=total damage to plant; 0=no damage to plant). On the procedure:
as §1

Take `Cc1ccc(-c2nc(C3C(=O)[C@@H]4[C@H](C3=O)[C@H]3CC[C@@H]4O3)c(C)s2)cc1` (stereo partly drawn) [Compound T20]: the pest or weed control at 250 g/ha was 70% in test [1]; 50% in test [2]; 0% in test [3]; 60% in test [4]; 80% in test [5]; 100% in [6]. Besides, the pest or weed control at 250 g/ha amounted to 90% in [7], 0% in test [8], 100% in [9] and 100% in test [10].
Regarding `CCc1sc(-c2ccc(Br)cc2)nc1C1C(=O)[C@@H]2[C@H](C1=O)[C@H]1CC[C@@H]2O1` (stereo partly drawn) [Compound T29], the pest or weed control at 250 g/ha in test [1] was 90%; in [2] it was 50%; in [3], 20%; in test [4], 90%; in [5], 90%; in [6] it was 100%. Moreover, the pest or weed control at 250 g/ha turned out to be 100% in [7], 0% in test [8], 100% in [9] and 100% in test [10].
As to `Cc1sc(-c2ccc(Cl)c(Cl)c2)nc1C1C(=O)[C@@H]2[C@H](C1=O)[C@H]1CC[C@@H]2O1` (stereo partly drawn) [Compound T31], the pest or weed control at 250 g/ha turned out to be 90% in [1]; 60% in test [2]; 20% in test [3]; 70% in test [4]; 90% in test [5]; 80% in [6]. The pest or weed control at 250 g/ha in test [7] was 60%; in [8] it was 0%; in test [9] it was 50%; in test [10] it was 70%.
For `Cc1sc(-c2cccs2)nc1C1C(=O)[C@@H]2[C@H](C1=O)[C@H]1CC[C@@H]2O1` (stereo partly drawn) [Compound T32], the pest or weed control at 250 g/ha in test [1] amounted to 0%; in test [2] it was 0%; in test [3], 0%; in [4], 0%; in test [5], 40%; in [6], 30%. Moreover, the pest or weed control at 250 g/ha in [7] was determined as 0%; in test [8] it was 0%; in [9], 0%; in [10], 70%.
Turning to `Cc1sc(-c2ccc(I)cc2)nc1C1C(=O)[C@@H]2[C@H](C1=O)[C@H]1CC[C@@H]2O1` (stereo partly drawn) [Compound T33], the pest or weed control at 250 g/ha in test [1] was determined as 100%; in test [2] it was 90%; in test [3], 0%; in test [4], 0%; in test [5] it was 100%; in [6] it was 100%. The pest or weed control at 250 g/ha is 100% in test [7], 60% in [8], 100% in [9] and 100% in test [10].
For `CCc1sc(-c2ccc(Br)cc2C)nc1C1C(=O)[C@@H]2[C@H](C1=O)[C@H]1CC[C@@H]2O1` (stereo partly drawn) [Compound T35], the pest or weed control at 250 g/ha in [1] is 100%; in test [2], 100%; in test [3], 0%; in test [4], 100%; in test [5] it was 100%; in [6] it was 100%. Moreover, the pest or weed control at 250 g/ha was found to be 100% in test [7], 0% in [8], 100% in test [9] and 100% in test [10].
On to `Cc1sc(-c2ccc(Br)cc2F)nc1C1C(=O)[C@@H]2[C@H](C1=O)[C@H]1CC[C@@H]2O1` (stereo partly drawn) [Compound T36], for which the pest or weed control at 250 g/ha amounted to 100% in [1]; 90% in test [2]; 0% in test [3]; 80% in test [4]; 100% in [5]; 100% in [6]. Further, the pest or weed control at 250 g/ha in [7] came to 100%; in test [8], 30%; in [9] it was 100%; in [10], 100%.
As to `Cc1sc(-c2ccc(Cl)s2)nc1C1C(=O)[C@@H]2[C@H](C1=O)[C@H]1CC[C@@H]2O1` (stereo partly drawn) [Compound T37], the pest or weed control at 250 g/ha was 40% in test [1]; 30% in [2]; 0% in [3]; 0% in [4]; 90% in test [5]; 90% in test [6]. The pest or weed control at 250 g/ha in [7] was 50%; in test [8], 0%; in test [9] it was 10%; in test [10], 90%.
`Cc1sc(-c2ccc(Br)cn2)nc1C1C(=O)[C@@H]2[C@H](C1=O)[C@H]1CC[C@@H]2O1` (stereo partly drawn) [Compound T38]: the pest or weed control at 250 g/ha in [1] came to 40%; in test [2] it was 0%; in [3], 0%; in [4], 0%; in test [5] it was 90%; in test [6] it was 100%. Besides, the pest or weed control at 250 g/ha in [7] is 90%; in [8], 0%; in test [9], 90%; in test [10], 100%.
Turning to `Cc1cc(Br)ccc1-c1nc(C2C(=O)[C@@H]3[C@H](C2=O)[C@H]2CC[C@@H]3O2)c(C)s1` (stereo partly drawn) [Compound T39], the pest or weed control at 250 g/ha in [1] worked out at 80%; in [2], 70%; in [3], 0%; in test [4], 90%; in test [5], 90%; in [6], 100%. For the same compound, the pest or weed control at 250 g/ha in test [7] was determined as 100%; in test [8], 0%; in test [9], 100%; in test [10] it was 100%.
Consider `CCc1sc(COc2ccc(Cl)cc2)nc1C1C(=O)[C@@H]2[C@H](C1=O)[C@H]1CC[C@@H]2O1` (stereo partly drawn) [Compound T40], for which the pest or weed control at 250 g/ha was 100% in test [1]; 90% in test [2]; 0% in test [3]; 40% in test [4]; 100% in test [5]; 100% in test [6]. For the same compound, the pest or weed control at 250 g/ha in [7] is 100%; in test [8], 0%; in test [9] it was 70%; in [10], 100%.
On to `Cc1sc(-c2ccc(OC(F)F)cc2)nc1C1C(=O)[C@@H]2[C@H](C1=O)[C@H]1CC[C@@H]2O1` (stereo partly drawn) [Compound T41], for which the pest or weed control at 250 g/ha in test [1] is 100%; in test [2], 100%; in [3] it was 0%; in test [4] it was 30%; in test [5] it was 100%; in test [6], 100%. Further, the pest or weed control at 250 g/ha amounted to 100% in test [7], 0% in [8], 90% in test [9] and 100% in test [10].
